According to US8058258B2, “Methods for cancer therapy and stem cell modulation” (Agency for Science, Technology and Research, priority 2006, dated 2011):

How the values were obtained:
[1] = system: PRC2 components SUZ12, EZH2 and EED; test: Western blot of PRC2 protein levels after drug treatment; format: cell-based, human; conditions: HCT116 or MCF-7 cells, 5 μM, 48 and 72 hours
Procedure: (§1) Cell lines used in these examples were purchased from the American Type Culture Collection (Manassas, Va.). Cells were maintained in DMEM supplemented with 10% fetal bovine serum with glutamine, penicillin, and streptomycin. For drug treatment, cells were seeded the day before the drug treatment. Cells were treated with 5 μM 3-Deazaneplanocin A or 2 μM 5-aza-2'-deoxycytidine (5-AzaC; Sigma) for 72 hours and trichostatin A (TSA; Sigma) at 100 nM for 24 hours. For co-treatment of cells with 5-AzaC and TSA, 5-Aza was added for 48 hours and followed by TSA for 24 hours. Cell pellets were first lysed in RadioImmuno Precipitation Assay (RIPA) buffer, consisting of an aqueous solution of 25 mM Tris-HCl pH 7.6, 150 mM NaCl, 1% Nonidet-P 40 (NP-40), 1% sodium deoxycholate and 0.1% sodium dodecylsulfate (SDS), before further sonicated using a tissue homogeniser to release all the proteins. Equal amounts of protein were separated on SDS-polyacrylamide gels and transferred to polyvinylidene difluoride (PVDF) membranes. The blots were probed with antibodies against: EED (07-368), SUZ12 (07-379), SUV39H1 (07-550), BMI1 (05-637), tri-methylated H3-K27 (07-449), tri-methylated H3-K9 (07-442) and Acetyl-Histone H3 (06-599), and were purchased from Upstate. EZH2 (AC22) and Histone H3 (3H1) were from Cell Signaling. […]

[2] = system: trimethylation of histone 3 at lysine 27 (H3-K27); test: Western blot of histone H3 lysine 27 trimethylation; format: cell-based, human; conditions: HCT116 or MCF-7 cells, 5 μM, 48 and 72 hours
Procedure: as §1

[3] = system: histone H3 methylation at lysine 9 (H3-K9); test: Western blot of histone H3 lysine 9 methylation; format: cell-based, human; conditions: HCT116 or MCF-7 cells, 5 μM, 48 and 72 hours
Procedure: as §1

Suv39h1 = test: Western blot of Suv39h1 protein levels; format: cell-based, human; conditions: HCT116 or MCF-7 cells, 5 μM, 48 and 72 hours
Procedure: as §1

HCT116 cells = test: Cell death by PI staining and flow cytometry; format: cell-based; conditions: colorectal cancer HCT116 cells, 5 μM
Procedure: (§2) FIG. 3A depicts the detection of cell death of a variety of cancer cells upon exposure to 3-deazaneplanocin (DZNep) compared to untreated controls cells (DMSO=dimethyl sulfoxide). Breast cancer MCF-7 and MB-468 cells, colorectal HCT116, RKO and SW480 cells were treated with 5 μm 3-deazaneplanocin for 48 and 72 h, and cell death was detected by means of propodium iodide (PI) staining and flow cytometry analysis. Shown is the average of three independent experiments.
(§3) Cell lines used in these examples were purchased from the American Type Culture Collection (Manassas, Va.). Cells were maintained in DMEM supplemented with 10% fetal bovine serum with glutamine, penicillin, and streptomycin. For drug treatment, cells were seeded the day before the drug treatment. Cells were treated with 5 μM 3-Deazaneplanocin A or 2 μM 5-aza-2′-deoxycytidine (5-AzaC; Sigma) for 72 hours and trichostatin A (TSA; Sigma) at 100 nM for 24 hours. For co-treatment of cells with 5-AzaC and TSA, 5-Aza was added for 48 hours and followed by TSA for 24 hours.
(§4) Cells were trypsinised and washed with PBS and fixed in 70% ethanol and processed for propidium iodide staining and FACS analysis. For the caspase 3 activity assay and mitochondrial membrane potential detection, cells were stained with anti-active caspase 3 and JC-1, respectively, according to the manufacturer's instructions (BD Bioscience).
(§5) It was observed that 3-deazaneplanocin at 5 μM could induce 25% cell death at 48 hours and 45% of cell death at 72 hours, as determined by propodium iodide (PI) staining and flow cytometry analysis (FIG. 3A).

RKO cells = test: Cell death by PI staining and flow cytometry; format: cell-based; conditions: colorectal cancer RKO cells, 5 μM
Procedure: as §2, §3, §4, §5

SW480 cells = test: Cell death by PI staining and flow cytometry; format: cell-based; conditions: colorectal cancer SW480 cells, 5 μM
Procedure: as §2, §3, §4, §5

MCF10A cells = test: Apoptosis by FACS analysis in non-cancerous cells; format: cell-based; conditions: 5 μM
Procedure: Cells were treated with 5 μM 3-deazaneplanocin (DZNep, dark bars) for indicated times.
(§6) FIG. 6A depicts an analysis of the breast cancer cell lines MCF-7, MB-468, SK-BR-3, MB-231, T47D and BT549 for an apoptotic effect of 5 μM 3-deazaneplanocin over a time frame of 120 hours. Cell death was measured by FACS analysis. Data presented are the average of three independent experiments.
as §4
To determine whether 3-deazaneplanocin preferentially induces apoptosis in cancer cells, the apoptosis induction between MCF-7 cells and the non-cancerous breast epithelial MCF10A cells was compared for various periods of time. […] In addition, normal primary colon epithelial CC33D cells, like MCF10A cells, were also resistant to 3-deazaneplanocin treatment compared to colorectal cancer HCT116 cell, as evaluated by microscopy examination (FIGS. 3G & 3H).
To extend the observation seen in MCF-7 cells, additional breast cancer cell lines were screened, including MB-468, SK-BR-3, MB-231, T47D and BT549. […]

SK-BR-3 cells = test: Apoptotic response time course by FACS analysis; format: cell-based, human; conditions: SK-BR-3, 5 μM, time course to 120 hours
Procedure: as §6, §4
(§7) To extend the observation seen in MCF-7 cells, additional breast cancer cell lines were screened, including MB-468, SK-BR-3, MB-231, T47D and BT549. […] To identify the PRC2 target genes associated with the cellular sensitivity to 3-deazaneplanocin, the array analysis was performed in these breast cancer cell lines before and after 3-deazaneplanocin treatment and the expression of the 47 identified PRC2 targets profiled. It was reasoned that some the PRC2 target genes might be differentially expressed between the sensitive and resistant cell lines, which might confer the distinct sensitivity to 3-deazaneplanocin. […] Both the real time and conventional RT-PCR analysis of the 4 gene set confirmed the array data (FIGS. 6D & 6E). […]

T47D cells = test: Apoptotic response time course by FACS analysis; format: cell-based, human; conditions: 5 μM, time course to 120 hours
Procedure: as §6, §4, §7

[4] = system: caspase 3 in HCT116 cells; test: Caspase 3 activity by flow cytometry; format: cell-based
Excerpt: as §4, with “FIG. 3D depicts the detection of activation the protease caspase 3 potential in HCT116 cells by 3-deazaneplanocin (DZNep, right hand side), which occurs during apoptosis. Cells” for “Cells”

[5] = system: PRC2 target genes TGFBI, KRT17, FBXO32, ANXA8, DLX2; test: Real-time RT-PCR of representative PRC2 targets in MCF-7 cells; format: cell-based, human
Procedure: I: MCF-7 cells were untreated or treated with 3-deazaneplanocin (DZNep), 5-azacytidine (5-AzaC) or a combination of 5-azacytidine and trichostatin A (AZA+TSA), and RNA was isolated for gene expression analysis.
Total RNA was isolated from cell lines using Trizol (Invitrogen) and was converted to cDNA using an RNA Amplification kit (Ambion). […] Quantitative real-time PCR was performed on a PRISM 7900 sequenced detector (Applied Biosystems) using TaqMan probes (Applied Biosystems). Samples were normalized to the levels of 18S ribosomal RNA.
The array results were further confirmed by real-time RT-PCR for representative PRC2 targets.

SMILES: Nc1nccc2c1ncn2C1C=C(CO)C(O)C1O (centres unmarked) [3-deazaneplanocin, 5-(4-amino-1H-imidazo[4,5-c]pyridin-1-yl)-3-(hydroxymethyl)-3-cyclopentene-1,2-diol]
- protein levels of PRC2 components SUZ12, EZH2 and EED [1]: dramatic decrease
- trimethylation of histone 3 at lysine 27 (H3-K27) [2]: strongly reduced
- histone H3 methylation at lysine 9 (H3-K9) [3]: not affected
- Suv39h1 protein levels (Suv39h1): not affected
- cell death (HCT116 cells): obvious cell death
- cell death (RKO cells): obvious cell death
- cell death (SW480 cells): obvious cell death
- sensitivity to 3-deazaneplanocin-induced cell death (MCF10A cells; MCF10A, time course to 120 hours): highly resistant
- apoptosis induction (MCF10A cells; non-cancerous breast epithelial MCF10A cells, up to 96 hours): no obvious apoptosis
- sensitivity to 3-deazaneplanocin-induced cell death (SK-BR-3 cells): highly susceptible
- sensitivity to 3-deazaneplanocin-induced cell death (T47D cells): highly susceptible
- activation of the protease caspase 3 [4]: activation
- expression of ANXA8 and DLX2 (real-time RT-PCR) [5]: activated
- induction of TGFBI, KRT17 and FBX032 (real-time RT-PCR) [5]: only induced
